Where two headings read alike, the source gives them in different places.
How the values were obtained:
[1] = system: PDE activity in cell extracts of malaria parasites; design: method as in PMID 16038615, PMID 25951195; settings: read-out: IC50 against PDE activity in cell extracts; cited from earlier work
[2] = system: P. falciparum (clone 3D7); experiment: Parasite reduction ratio (PRR) assay; format: cell-based, Plasmodium falciparum; settings: for Slope: 10× EC50, 3D7 killing profile
Protocol: The in vitro killing profile of compounds was determined by monitoring the ability of parasites to recover following treatment with a compound of interest using a previously reported approach ([50]), which allowed calculation of the PRR ([51]). […] To quantify the number of viable parasites following treatment, four independent sets of threefold serial dilutions were performed on each sample, which were assayed for the presence or absence of parasites after 28 days using the LDH assay, and the number of viable parasites was determined by the number of wells showing growth. PRR and PCT99.9% were calculated as previously reported ([50]).

P. falciparum 3D7 = experiment: Ex vivo 72-hour SYBR Green assay, 3D7 control (Uganda); format: cell-based, Plasmodium falciparum; settings: Plasmodium falciparum, 3D7, read-out: EC50 lab strain 3D7
Protocol: (§1) Samples were delivered to the adjacent IDRC laboratory at Tororo District Hospital or transported by car from Masafu Hospital on the day of collection for storage of blood spots on filter paper (for isolation of nucleic acids) and initiation of ex vivo culture of malaria parasites. […] Before assay, 10 mM antimalarial stock compounds were diluted as necessary in DMSO and stored at −20°C. […] Compounds were serially diluted threefold in a 96-well assay plate in complete medium to a final volume of 50 μl, in columns 1 to 10, with concentrations optimized to capture full dose-response curves. Column 11 contained compound-free controls, while column 12 contained uninfected human RBC controls. Parasite culture (150 μl) was added to columns 1 to 11 of the assay plate with a final volume of 200 μl per well, 0.2% parasitemia, and 2% hematocrit. […] Thawed plates were incubated with SYBR Green lysis buffer for 1 hour in the dark as previously reported ([62]). Fluorescence was quantified using a BMG Fluostar Optima plate reader at an excitation of 485 nm and an emission of 530 nm, and data were plotted using GraphPad Prism 7. The data were curve fit with a variable slope function to estimate IC50 values. For each isolate, a Z′ factor to assess assay quality was calculated from positive controls (eight drug-free wells) and negative controls (eight parasite-free, red cell control wells). Z′ values over 0.5 were considered good assays, but each curve was also examined by eye for suitability. Some assays with Z′ below 0.5 may be considered valid depending on factors such as the SE of the curve-fit IC50.

P. falciparum Dd2 = experiment: Ex vivo 72-hour SYBR Green assay, Dd2 control (Uganda); format: cell-based, Plasmodium falciparum; settings: Plasmodium falciparum, DD2, read-out: EC50 lab strain Dd2
Protocol: as §1

[3] = system: P. falciparum clinical isolates from Tororo and Busia Districts of Uganda; experiment: Ex vivo 72-hour SYBR Green assay, Ugandan clinical isolates; format: cell-based, Plasmodium falciparum; settings: Plasmodium falciparum
Source text: Clinical isolates were from the Tororo District of Uganda, located in the central-eastern part of the county near the Kenya border. Tororo and surrounding areas have high-intensity, year-round malaria transmission. […] Patients reporting use of antimalarial treatment within the previous 30 days or with evidence of an infection with other Plasmodium species were excluded. Informed consent was obtained from patients and/or primary care givers (depending on age); children aged 8 to 17 years provided assent. Two to 5 ml of blood was collected by venipuncture in a heparin tube. Samples were delivered to the adjacent IDRC laboratory at Tororo District Hospital or transported by car from Masafu Hospital on the day of collections for storage of blood spots on filter paper (for isolation of nucleic acids) and initiation of ex vivo culture of malaria parasites. Treatment involved a standard therapeutic regimen for uncomplicated falciparum malaria, which was a 3-day course of the artemisinin-based combination therapy (ACT), artemether-lumefantrine. In Uganda, at the time of sampling, there was widespread resistance to the antifolate drugs due to mutant pfdhfr/pfdhps alleles. […] Chloroquine was prepared at 10 mM in water. Stock solutions were stored at −20°C. Working solutions were freshly prepared from a single aliquot within 4 hours of the susceptibility test and stored at 4°C.
as §1

[4] = system: P. falciparum clinical isolates from Porto Velho, Brazil; experiment: Ex vivo schizont maturation assay, Brazilian clinical isolates; format: cell-based, Plasmodium falciparum; settings: Plasmodium falciparum
Protocol: Only monoinfected patients with P. falciparum with parasitemia between 2000 and 80,000 parasites/μl and with at least 70% of ring-stage parasites were recruited. Patients who had used an antimalarial in the previous month and/or presented with symptoms of severe malaria were excluded from the study. The study cohort comprised 24 patients living in this highly endemic area. A peripheral venous blood sample (5 ml) was collected from each individual by venipuncture in heparin-containing tubes and immediately used in the ex vivo drug susceptibility assay using preprepared plates containing diluted antimalarial compounds. […] Last, 20 μl of each dilution was transferred into the ex vivo assay plate and diluted 10-fold into the final assay medium containing parasites. For the infected blood preparation, 5 ml of whole blood was centrifuged at 800g for 10 min, and the plasma and buffy coat were removed. […] Control assays on a 3D7 laboratory isolate were performed with medium supplemented with human serum (20%). The iRBC (180 μl per well) were distributed in the predosed drug plate. […] Control wells containing drug-free iRBCs were cultured with complete medium. The parasite-drug incubation was terminated when 40% of the ring stages reached the schizont stage (at least three distinct nuclei per parasite) in the drug-free control wells. Thick blood films were then made from each well, dried, stained with 5% Giemsa solution for 30 min, and examined microscopically. The number of schizonts per 200 asexual-stage parasites was determined for each drug concentration and then normalized by comparing with the schizont number in the drug-free control wells [considered as 100% ([64])]. The half-maximal drug inhibitory response (EC50) was estimated by curve fitting using software from the OriginLab Corporation, Northampton, MA, USA and comparing with parasite growth in the drug-free controls.

P. falciparum Dd2-B2 = experiment: 72-hour flow cytometry EC50 assay, Dd2-B2 parental line; format: cell-based, Plasmodium falciparum
Protocol: (§2) Stocks of SAL-0010003 (5-benzyl), SAL-0010355 (5-aryl), and SAL-0010419 (2-alkyl) were made at 10 and 1 mM in DMSO. Aliquots in use were stored at −20°C, and long-term storage was at −80°C. All in vitro studies were done such that the final DMSO concentration was <0.5%. P. falciparum ABS parasites were cultured at 3% hematocrit in human O+ RBCs in RPMI 1640 medium, supplemented with 25 mM Hepes, 50 mg L-hypoxanthine, 2 mM L-glutamine, 0.225% sodium bicarbonate, 0.5% (w/v) AlbuMAX II (Invitrogen) and gentamycin (10 μg/ml), in modular incubator chambers (Billups-Rothenberg) at 5% O2, 5% CO2, and 90% N2 at 37°C. Dd2-B2 (obtained from T. Wellems, National Institute of Allergy and Infectious Diseases, National Institutes of Health) is a genetically homogenous line that was cloned from Dd2 by limiting dilution. To define the EC50 and EC90 values of ABS parasites, Dd2-B2 ring-stage cultures at 0.2% parasitemia and 1% hematocrit were exposed for 72 hours to a range of 10 drug concentrations that were twofold serially diluted in duplicates along with drug-free controls. Parasite survival was assessed by flow cytometry on an iQue flow cytometer (Sartorius) using SYBR Green and MitoTracker Deep Red FM (Life Technologies) as nuclear stain and vital dyes, respectively. After determination of the EC50 and EC90 values for the three compounds with the P. falciparum Dd2-B2 clone, one single-step selection was set up using 2 × 10^5 parasites in each well of a 96-well plate at a starting concentration of 3× EC90. Parasites were cleared from the culture rapidly, and cultures were screened three times weekly by flow cytometry and counted as positive for recrudescence when the overall parasitemia reached 0.3% and the parasites were visible on a blood smear. DNA was extracted from recrudescent lines using a QIAGEN QIAamp Blood Mini Kit, and libraries were prepared with the Illumina DNA Prep kit for whole-genome sequencing on the Illumina MiSeq using a V3 2 × 300–base pair flow cell.

[5] = system: P. falciparum Dd2-B2 lines selected under drug pressure; experiment: 72-hour flow cytometry EC50 assay, lines selected under drug pressure; format: cell-based, Plasmodium falciparum; settings: for Mean fold change in EC50: selected lines vs Dd2-B2 parental line, ±SD
Protocol: Three examples of an additional compound series developed independently [NPD-2958, NPD-3518 ([31]), and NPD-3738; fig.
as §2

HepG2 cells = experiment: HepG2 cytotoxicity; format: cell-based
Source text: Table 1. Key activity data for the three main chemical subseries against ABS parasites, parasite fractions, and HepG2 cells. ND, not determined; ×/÷ is the geometric mean with geometric SD. | column: HepG2 EC50 (nM) (selectivity index)

[6] = read-out: EC50 clinical isolates, Gmean (geometric mean)
[7] = read-out: EC50 clinical isolates, Median
[8] = read-out: EC50 clinical isolates, Range
[9] = read-out: EC50 Dd2-B2 parental line
[10] = read-out: EC50, line selected with the same NPD compound, Well 1
[11] = read-out: EC50, line selected with the same NPD compound, Well 2
[12] = read-out: EC50, line selected with the same NPD compound, Well 3
[13] = read-out: EC50, line selected with the same NPD compound, Well 4

CC(C)Cn1c(=O)n(C)c(=O)c2[nH]cnc21 [3-isobutyl-1-methylxanthine]
IC50 [1]: > 100000 nM

CCN(CC)CCCC(C)Nc1ccnc2cc(Cl)ccc12 (stereo not drawn) [Chloroquine, reference compound]
Lag phase ([2]; 10× EC50, 3D7): 0 h
PCT99.9% (hours taken to kill 99.9% of the parasites) ([2]; 10× EC50, 3D7): 39.0 h
Slope [2]: −0.0717 ± 0.0037
EC50 (P. falciparum 3D7): 9.4 nM
EC50 (P. falciparum Dd2): 347 nM
EC50 [3, 6]: 13 nM
EC50 [3, 7]: 14 nM
EC50 [3, 8]: 2 to 25 nM
EC50 ([4]; read-out: EC50 range, clinical isolates): 626 to 2600 nM
EC50 ([4]; read-out: Median EC50, clinical isolates): 1200 nM

CC(C)c1n[nH]c2c(=O)[nH]c(Cc3ccccc3Cl)nc12 [NPD-2958]
EC50 (P. falciparum Dd2-B2; [9]): 320 nM
EC50 [5, 10]: 2570 nM
EC50 [5, 11]: 3370 nM
EC50 [5, 12]: 2470 nM
EC50 [5, 13]: 2440 nM
Mean fold change in EC50 [5]: 8.5 ± 1.4 fold
EC50 shift, line selected with the same NPD compound, Well 1 ([5]; vs Dd2-B2): 8.1 fold
EC50 shift, line selected with the same NPD compound, Well 2 ([5]; vs Dd2-B2): 10.5 fold
EC50 shift, line selected with the same NPD compound, Well 3 ([5]; vs Dd2-B2): 7.7 fold
EC50 shift, line selected with the same NPD compound, Well 4 ([5]; vs Dd2-B2): 7.6 fold

CC(C)c1n[nH]c2c(=O)[nH]c(C3CCCCC3)nc12 [NPD-3518]
EC50 (P. falciparum Dd2-B2; [9]): 203 nM
EC50 [5, 10]: 2630 nM
EC50 [5, 11]: 2290 nM
EC50 [5, 12]: 2530 nM
EC50 [5, 13]: 2510 nM
Mean fold change in EC50 [5]: 12.2 ± 0.7 fold
EC50 shift, line selected with the same NPD compound, Well 1 ([5]; vs Dd2-B2): 12.9 fold
EC50 shift, line selected with the same NPD compound, Well 2 ([5]; vs Dd2-B2): 11.2 fold
EC50 shift, line selected with the same NPD compound, Well 3 ([5]; vs Dd2-B2): 12.4 fold
EC50 shift, line selected with the same NPD compound, Well 4 ([5]; vs Dd2-B2): 12.4 fold

CCc1nc(N)nc(N)c1-c1ccc(Cl)cc1 [Pyrimethamine, reference compound]
Lag phase ([2]; 10× EC50, 3D7): 24 h
Log PRR ([2]; 10× EC50, 3D7): 3.2
PCT99.9% (hours taken to kill 99.9% of the parasites) ([2]; 10× EC50, 3D7): 63.1 h
Slope [2]: −0.0667 ± 0.0059
EC50 (P. falciparum 3D7): 46 nM
EC50 (P. falciparum Dd2): 21700 nM
EC50 [3, 6]: 41600 nM
EC50 [3, 7]: 39300 nM
EC50 [3, 8]: 15900 to 196000 nM
EC50 ([3]; read-out: Geometric mean EC50, Ugandan isolates (Fig. 3B)): 41600 nM

CC(C)COc1ccc(C(=O)N2CC(N(C)C)C2)cc1-c1nc2c(C(C)C)n[nH]c2c(=O)[nH]1 [SAL-0010355]
EC50 (P. falciparum Dd2-B2; Plasmodium falciparum, DD2, read-out: EC50 Dd2-B2 parental line): 69.2 nM
EC50 (HepG2 cells; Homo sapiens, HepG2): > 25000 nM
HepG2 selectivity index (HepG2 cells; value in brackets after HepG2 EC50): 1,185
EC50 ([5]; Plasmodium falciparum, DD2, read-out: EC50, line selected with SAL-0010355, Well B7): 430 nM
EC50 ([5]; Plasmodium falciparum, DD2, read-out: EC50, line selected with SAL-0010355, Well D7): 468 nM
EC50 ([5]; Plasmodium falciparum, DD2, read-out: EC50, line selected with SAL-0010355, Well D9): 371 nM
Mean fold change in EC50 [5]: 6.1 ± 0.7 fold
EC50 shift, line selected with SAL-0010355, Well B7 ([5]; vs Dd2-B2): 6.2 fold
EC50 shift, line selected with SAL-0010355, Well D7 ([5]; vs Dd2-B2): 6.8 fold
EC50 shift, line selected with SAL-0010355, Well D9 ([5]; vs Dd2-B2): 5.4 fold

Cn1c(=O)c2c(ncn2C)n(C)c1=O [caffeine]
IC50 [1]: > 100000 nM

COc1ccc(C2CNC(=O)C2)cc1OC1CCCC1 (stereo not drawn) [rolipram]
IC50 [1]: > 100000 nM

Cn1c(=O)c2[nH]cnc2n(C)c1=O [theophylline]
IC50 [1]: > 100000 nM
